Experimental data reported in ChEMBL document CHEMBL1122957, “Artificial siderophores. 2. Syntheses of trihydroxamate analogues of rhodotorulic acid and their biological iron transport capabilities in Escherichia coli” (1985).

Legend:
Assay type in all cases: functional, organism-based
[1] = test system: Escherichia coli; experiment: The ability of the artificial siderophores to support the growth of Escherichia coli strain BN 3306 was evaluated at the concentration of 50 uM; No growth around the disc
[2] = test system: Escherichia coli; experiment: The ability of the artificial siderophores to support the growth of Escherichia coli strain BN 3300 was evaluated at the concentration of 50 uM; No growth around the disc
[3] = test system: Escherichia coli; experiment: The ability of the artificial siderophores to support the growth of Escherichia coli strain RWB7 was evaluated at the concentration of 50 uM; No growth around the disc
[4] = test system: Escherichia coli; experiment: The ability of the artificial siderophores to support the growth of Escherichia coli strain BN 3306 was evaluated at the concentration of 50 and 500 uM; No growth around the disc
[5] = test system: Escherichia coli; experiment: The ability of the artificial siderophores to support the growth of Escherichia coli strain RW 193 was evaluated at the concentration of 50 and 500 uM; No growth around the disc
[6] = test system: Escherichia coli; experiment: The ability of the artificial siderophores to support the growth of Escherichia coli strain BN 3300 was evaluated at the concentration of 50 and 500 uM; No growth around the disc
[7] = test system: Escherichia coli; experiment: The ability of the artificial siderophores to support the growth of Escherichia coli strain AN 193 was evaluated at the concentration of 50 and 500 uM; No growth around the disc
[8] = test system: Escherichia coli; experiment: The ability of the artificial siderophores to support the growth of Escherichia coli strain RWB7 was evaluated at the concentration of 50 and 500 uM; No growth around the disc
[9] = test system: Escherichia coli; experiment: The ability of the artificial siderophores to support the growth of Escherichia coli strain AN 193 was evaluated at the concentration of 50 uM; No growth around the disc
[10] = test system: Escherichia coli; experiment: The ability of the artificial siderophores to support the growth of Escherichia coli strain RWB7 was evaluated at the concentration of 25 uM; No growth around the disc

## CC(=O)N(O)CCC[C@@H]1NC(=O)[C@H](CCCN(O)C(C)=O)NC1=O
[1]
  Inhibitory diameter: Not toxic
[2]
  Inhibitory diameter: Not toxic
[3]
  Inhibitory diameter: Not toxic

## CN(O)C(=O)CCCCCn1c(=O)[nH]c(=O)n(CCCCCC(=O)N(C)O)c1=O
[4]
  Inhibitory diameter: Not toxic
[5]
  Inhibitory diameter: Not toxic
[6]
  Inhibitory diameter: Not toxic
[7]
  Inhibitory diameter: Not toxic
[8]
  Inhibitory diameter: Not toxic

## CC(=O)N(O)CCCn1c(=O)n(CCCN(O)C(C)=O)c(=O)n(CCCN(O)C(C)=O)c1=O
[7]
  Inhibitory diameter: Not toxic
[8]
  Inhibitory diameter: Not toxic

## CC(=O)N(O)CCCCn1c(=O)n(CCCCN(O)C(C)=O)c(=O)n(CCCCN(O)C(C)=O)c1=O
[8]
  Inhibitory diameter: Not toxic

## CC(=O)N(O)CCCCCn1c(=O)n(CCCCCN(O)C(C)=O)c(=O)n(CCCCCN(O)C(C)=O)c1=O
[7]
  Inhibitory diameter: Not toxic
[8]
  Inhibitory diameter: Not toxic

## FERRICHROME
[1]
  Inhibitory diameter: Not toxic
[2]
  Inhibitory diameter: Not toxic
[3]
  Inhibitory diameter: Not toxic
[9]
  Inhibitory diameter: Not toxic

## CN(O)C(=O)CCCCCn1c(=O)n(CCCCCC(=O)N(C)O)c(=O)n(CCCCCC(=O)N(C)O)c1=O
[4]
  Inhibitory diameter: Not toxic
[6]
  Inhibitory diameter: Not toxic
[7]
  Inhibitory diameter: Not toxic
[8]
  Inhibitory diameter: Not toxic

## O=C(N[C@H]1COC(=O)[C@@H](NC(=O)c2cccc(O)c2O)COC(=O)[C@@H](NC(=O)c2cccc(O)c2O)COC1=O)c1cccc(O)c1O
[10]
  Inhibitory diameter: Not toxic
